Read-outs that look alike come from different tables or passages of the source.
What was measured:
Type in all cases: binding
[1] = target: T1, HeLa cell extract proteins (Homo sapiens, UniProt O15269)
T1 construct: endogenous in cells; host or cells: HeLa cell extract
T1 sequence (O15269 1-473): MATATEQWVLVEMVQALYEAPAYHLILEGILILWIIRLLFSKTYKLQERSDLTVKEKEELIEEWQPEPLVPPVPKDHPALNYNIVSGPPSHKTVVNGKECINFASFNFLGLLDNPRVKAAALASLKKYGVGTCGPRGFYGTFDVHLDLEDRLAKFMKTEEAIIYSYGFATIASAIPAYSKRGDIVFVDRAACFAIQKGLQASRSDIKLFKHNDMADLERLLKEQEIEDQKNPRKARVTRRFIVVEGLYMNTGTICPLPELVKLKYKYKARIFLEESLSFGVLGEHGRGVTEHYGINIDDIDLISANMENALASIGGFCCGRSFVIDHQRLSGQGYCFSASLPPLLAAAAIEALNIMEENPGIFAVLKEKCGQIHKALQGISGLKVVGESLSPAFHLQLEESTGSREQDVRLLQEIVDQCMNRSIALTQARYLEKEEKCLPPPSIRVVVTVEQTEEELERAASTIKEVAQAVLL

[2] = target: T2, HeLa cell extract proteins (Homo sapiens, UniProt P06576)
T2 construct: endogenous in cells; host or cells: HeLa cell extract

[3] = target: T3, HeLa cell extract proteins (Homo sapiens, UniProt P21359)
T3 construct: endogenous in cells; host or cells: HeLa cell extract

[4] = target: T4, HeLa cell extract proteins (Homo sapiens, UniProt P22102)
T4 construct: endogenous in cells; host or cells: HeLa cell extract
T4 sequence (P22102 1-1010): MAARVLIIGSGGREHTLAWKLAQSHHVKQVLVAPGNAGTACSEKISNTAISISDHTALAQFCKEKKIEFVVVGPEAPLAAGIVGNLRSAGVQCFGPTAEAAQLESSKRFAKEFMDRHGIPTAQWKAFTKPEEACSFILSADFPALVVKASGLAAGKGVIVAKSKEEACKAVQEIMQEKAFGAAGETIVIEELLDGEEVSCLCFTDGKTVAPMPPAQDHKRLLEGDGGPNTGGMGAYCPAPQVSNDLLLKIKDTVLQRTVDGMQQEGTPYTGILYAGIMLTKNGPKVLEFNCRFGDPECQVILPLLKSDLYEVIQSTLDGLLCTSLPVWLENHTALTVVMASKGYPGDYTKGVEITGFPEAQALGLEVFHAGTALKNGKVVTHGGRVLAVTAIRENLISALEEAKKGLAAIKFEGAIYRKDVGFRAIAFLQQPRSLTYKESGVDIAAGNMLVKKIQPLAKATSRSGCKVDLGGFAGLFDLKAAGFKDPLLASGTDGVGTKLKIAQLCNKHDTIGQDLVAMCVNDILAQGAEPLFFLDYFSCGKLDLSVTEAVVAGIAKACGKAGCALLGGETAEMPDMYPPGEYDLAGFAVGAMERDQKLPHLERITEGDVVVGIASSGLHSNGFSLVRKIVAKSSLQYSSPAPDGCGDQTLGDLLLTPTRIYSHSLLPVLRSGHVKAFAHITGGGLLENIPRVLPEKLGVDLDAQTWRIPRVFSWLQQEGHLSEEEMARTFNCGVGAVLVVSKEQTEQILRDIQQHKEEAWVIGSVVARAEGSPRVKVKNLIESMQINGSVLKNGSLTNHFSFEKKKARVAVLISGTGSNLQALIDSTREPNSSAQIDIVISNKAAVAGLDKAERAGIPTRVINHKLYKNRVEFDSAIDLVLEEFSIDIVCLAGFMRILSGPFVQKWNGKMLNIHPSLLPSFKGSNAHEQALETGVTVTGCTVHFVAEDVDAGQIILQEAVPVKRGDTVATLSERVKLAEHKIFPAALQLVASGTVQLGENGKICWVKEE

[5] = target: T5, HeLa cell extract proteins (Homo sapiens, UniProt P36639)
T5 construct: endogenous in cells; host or cells: HeLa cell extract

[6] = target: T6, HeLa cell extract proteins (Homo sapiens, UniProt P68366)
T6 construct: endogenous in cells; host or cells: HeLa cell extract

[7] = target: T7, HeLa cell extract proteins (Homo sapiens, UniProt Q15366)
T7 construct: endogenous in cells; host or cells: HeLa cell extract

[8] = target: T8, HeLa cell extract proteins (Homo sapiens, UniProt Q7L1Q6)
T8 construct: endogenous in cells; host or cells: HeLa cell extract
T8 sequence (Q7L1Q6 1-419): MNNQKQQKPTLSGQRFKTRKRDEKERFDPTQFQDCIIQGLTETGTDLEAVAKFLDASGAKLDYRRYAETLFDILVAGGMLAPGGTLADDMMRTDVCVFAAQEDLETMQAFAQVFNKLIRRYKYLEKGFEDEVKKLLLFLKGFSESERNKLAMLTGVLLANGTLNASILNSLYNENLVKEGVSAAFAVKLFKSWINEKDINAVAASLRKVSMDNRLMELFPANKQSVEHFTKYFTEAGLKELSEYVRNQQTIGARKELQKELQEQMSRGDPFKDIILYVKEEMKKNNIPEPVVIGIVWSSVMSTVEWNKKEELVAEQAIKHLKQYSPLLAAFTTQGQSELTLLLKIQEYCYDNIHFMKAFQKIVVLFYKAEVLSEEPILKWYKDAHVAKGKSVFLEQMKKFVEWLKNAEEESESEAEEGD

[9] = target: T9, HeLa cell extract proteins (Homo sapiens, UniProt Q7Z3U7)
T9 construct: endogenous in cells; host or cells: HeLa cell extract

[10] = target: T10, HeLa cell extract proteins (Homo sapiens, UniProt Q92621)
T10 construct: endogenous in cells; host or cells: HeLa cell extract

T9 sequence (Q7Z3U7 whole entry): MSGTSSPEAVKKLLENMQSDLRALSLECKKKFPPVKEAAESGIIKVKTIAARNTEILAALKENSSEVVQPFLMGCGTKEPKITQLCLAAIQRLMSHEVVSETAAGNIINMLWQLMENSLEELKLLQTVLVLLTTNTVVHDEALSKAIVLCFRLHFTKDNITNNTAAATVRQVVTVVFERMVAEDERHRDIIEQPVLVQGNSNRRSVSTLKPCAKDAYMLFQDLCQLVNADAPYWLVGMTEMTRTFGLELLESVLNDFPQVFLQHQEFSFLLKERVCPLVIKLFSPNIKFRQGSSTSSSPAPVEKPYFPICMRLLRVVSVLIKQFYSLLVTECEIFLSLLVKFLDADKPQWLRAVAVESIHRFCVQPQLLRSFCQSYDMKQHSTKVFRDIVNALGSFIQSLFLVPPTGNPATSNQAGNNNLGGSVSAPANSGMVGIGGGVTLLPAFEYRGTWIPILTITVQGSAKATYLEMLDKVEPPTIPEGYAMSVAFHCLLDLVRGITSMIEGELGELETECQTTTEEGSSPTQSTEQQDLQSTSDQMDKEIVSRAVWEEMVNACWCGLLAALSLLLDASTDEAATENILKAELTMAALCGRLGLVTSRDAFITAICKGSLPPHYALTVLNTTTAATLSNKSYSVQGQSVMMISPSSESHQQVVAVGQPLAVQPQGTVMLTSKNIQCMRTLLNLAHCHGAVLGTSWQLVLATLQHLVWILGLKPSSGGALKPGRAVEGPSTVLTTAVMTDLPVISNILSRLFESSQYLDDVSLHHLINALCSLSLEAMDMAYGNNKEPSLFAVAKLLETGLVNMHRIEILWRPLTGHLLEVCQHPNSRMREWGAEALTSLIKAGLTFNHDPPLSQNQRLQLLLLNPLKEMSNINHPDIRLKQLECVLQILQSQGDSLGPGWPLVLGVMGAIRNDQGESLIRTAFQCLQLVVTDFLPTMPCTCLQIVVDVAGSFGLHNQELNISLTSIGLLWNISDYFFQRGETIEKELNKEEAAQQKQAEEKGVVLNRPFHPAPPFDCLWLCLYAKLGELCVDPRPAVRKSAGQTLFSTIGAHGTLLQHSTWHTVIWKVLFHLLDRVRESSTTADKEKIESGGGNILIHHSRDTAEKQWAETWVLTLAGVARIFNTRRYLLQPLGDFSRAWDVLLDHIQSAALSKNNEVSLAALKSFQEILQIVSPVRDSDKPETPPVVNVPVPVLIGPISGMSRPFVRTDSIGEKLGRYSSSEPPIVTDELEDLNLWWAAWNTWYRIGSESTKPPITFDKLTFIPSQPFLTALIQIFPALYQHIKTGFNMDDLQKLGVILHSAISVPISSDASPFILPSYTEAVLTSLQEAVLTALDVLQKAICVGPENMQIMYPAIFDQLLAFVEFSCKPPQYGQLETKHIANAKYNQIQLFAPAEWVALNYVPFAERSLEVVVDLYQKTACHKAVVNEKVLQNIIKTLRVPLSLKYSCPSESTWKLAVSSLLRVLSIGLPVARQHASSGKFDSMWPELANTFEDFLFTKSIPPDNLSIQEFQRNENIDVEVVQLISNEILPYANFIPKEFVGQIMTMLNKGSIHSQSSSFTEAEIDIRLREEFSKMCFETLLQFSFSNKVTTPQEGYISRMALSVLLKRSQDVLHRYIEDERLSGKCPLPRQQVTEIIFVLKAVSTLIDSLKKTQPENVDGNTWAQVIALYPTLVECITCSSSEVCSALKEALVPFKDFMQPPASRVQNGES
T6 sequence (P68366 whole entry): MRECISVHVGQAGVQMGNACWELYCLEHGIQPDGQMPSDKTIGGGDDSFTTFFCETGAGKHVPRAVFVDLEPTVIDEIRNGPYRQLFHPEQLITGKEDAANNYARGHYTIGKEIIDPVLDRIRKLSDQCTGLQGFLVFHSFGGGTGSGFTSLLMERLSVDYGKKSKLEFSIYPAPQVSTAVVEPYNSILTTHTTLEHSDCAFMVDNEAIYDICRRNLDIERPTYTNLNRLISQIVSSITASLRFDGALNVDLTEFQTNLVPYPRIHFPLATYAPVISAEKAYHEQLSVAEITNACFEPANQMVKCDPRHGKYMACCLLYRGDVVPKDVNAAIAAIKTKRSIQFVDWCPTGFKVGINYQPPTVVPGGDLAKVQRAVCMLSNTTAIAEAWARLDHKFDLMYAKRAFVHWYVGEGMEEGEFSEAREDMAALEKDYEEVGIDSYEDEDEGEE
T3 sequence (P21359 whole entry): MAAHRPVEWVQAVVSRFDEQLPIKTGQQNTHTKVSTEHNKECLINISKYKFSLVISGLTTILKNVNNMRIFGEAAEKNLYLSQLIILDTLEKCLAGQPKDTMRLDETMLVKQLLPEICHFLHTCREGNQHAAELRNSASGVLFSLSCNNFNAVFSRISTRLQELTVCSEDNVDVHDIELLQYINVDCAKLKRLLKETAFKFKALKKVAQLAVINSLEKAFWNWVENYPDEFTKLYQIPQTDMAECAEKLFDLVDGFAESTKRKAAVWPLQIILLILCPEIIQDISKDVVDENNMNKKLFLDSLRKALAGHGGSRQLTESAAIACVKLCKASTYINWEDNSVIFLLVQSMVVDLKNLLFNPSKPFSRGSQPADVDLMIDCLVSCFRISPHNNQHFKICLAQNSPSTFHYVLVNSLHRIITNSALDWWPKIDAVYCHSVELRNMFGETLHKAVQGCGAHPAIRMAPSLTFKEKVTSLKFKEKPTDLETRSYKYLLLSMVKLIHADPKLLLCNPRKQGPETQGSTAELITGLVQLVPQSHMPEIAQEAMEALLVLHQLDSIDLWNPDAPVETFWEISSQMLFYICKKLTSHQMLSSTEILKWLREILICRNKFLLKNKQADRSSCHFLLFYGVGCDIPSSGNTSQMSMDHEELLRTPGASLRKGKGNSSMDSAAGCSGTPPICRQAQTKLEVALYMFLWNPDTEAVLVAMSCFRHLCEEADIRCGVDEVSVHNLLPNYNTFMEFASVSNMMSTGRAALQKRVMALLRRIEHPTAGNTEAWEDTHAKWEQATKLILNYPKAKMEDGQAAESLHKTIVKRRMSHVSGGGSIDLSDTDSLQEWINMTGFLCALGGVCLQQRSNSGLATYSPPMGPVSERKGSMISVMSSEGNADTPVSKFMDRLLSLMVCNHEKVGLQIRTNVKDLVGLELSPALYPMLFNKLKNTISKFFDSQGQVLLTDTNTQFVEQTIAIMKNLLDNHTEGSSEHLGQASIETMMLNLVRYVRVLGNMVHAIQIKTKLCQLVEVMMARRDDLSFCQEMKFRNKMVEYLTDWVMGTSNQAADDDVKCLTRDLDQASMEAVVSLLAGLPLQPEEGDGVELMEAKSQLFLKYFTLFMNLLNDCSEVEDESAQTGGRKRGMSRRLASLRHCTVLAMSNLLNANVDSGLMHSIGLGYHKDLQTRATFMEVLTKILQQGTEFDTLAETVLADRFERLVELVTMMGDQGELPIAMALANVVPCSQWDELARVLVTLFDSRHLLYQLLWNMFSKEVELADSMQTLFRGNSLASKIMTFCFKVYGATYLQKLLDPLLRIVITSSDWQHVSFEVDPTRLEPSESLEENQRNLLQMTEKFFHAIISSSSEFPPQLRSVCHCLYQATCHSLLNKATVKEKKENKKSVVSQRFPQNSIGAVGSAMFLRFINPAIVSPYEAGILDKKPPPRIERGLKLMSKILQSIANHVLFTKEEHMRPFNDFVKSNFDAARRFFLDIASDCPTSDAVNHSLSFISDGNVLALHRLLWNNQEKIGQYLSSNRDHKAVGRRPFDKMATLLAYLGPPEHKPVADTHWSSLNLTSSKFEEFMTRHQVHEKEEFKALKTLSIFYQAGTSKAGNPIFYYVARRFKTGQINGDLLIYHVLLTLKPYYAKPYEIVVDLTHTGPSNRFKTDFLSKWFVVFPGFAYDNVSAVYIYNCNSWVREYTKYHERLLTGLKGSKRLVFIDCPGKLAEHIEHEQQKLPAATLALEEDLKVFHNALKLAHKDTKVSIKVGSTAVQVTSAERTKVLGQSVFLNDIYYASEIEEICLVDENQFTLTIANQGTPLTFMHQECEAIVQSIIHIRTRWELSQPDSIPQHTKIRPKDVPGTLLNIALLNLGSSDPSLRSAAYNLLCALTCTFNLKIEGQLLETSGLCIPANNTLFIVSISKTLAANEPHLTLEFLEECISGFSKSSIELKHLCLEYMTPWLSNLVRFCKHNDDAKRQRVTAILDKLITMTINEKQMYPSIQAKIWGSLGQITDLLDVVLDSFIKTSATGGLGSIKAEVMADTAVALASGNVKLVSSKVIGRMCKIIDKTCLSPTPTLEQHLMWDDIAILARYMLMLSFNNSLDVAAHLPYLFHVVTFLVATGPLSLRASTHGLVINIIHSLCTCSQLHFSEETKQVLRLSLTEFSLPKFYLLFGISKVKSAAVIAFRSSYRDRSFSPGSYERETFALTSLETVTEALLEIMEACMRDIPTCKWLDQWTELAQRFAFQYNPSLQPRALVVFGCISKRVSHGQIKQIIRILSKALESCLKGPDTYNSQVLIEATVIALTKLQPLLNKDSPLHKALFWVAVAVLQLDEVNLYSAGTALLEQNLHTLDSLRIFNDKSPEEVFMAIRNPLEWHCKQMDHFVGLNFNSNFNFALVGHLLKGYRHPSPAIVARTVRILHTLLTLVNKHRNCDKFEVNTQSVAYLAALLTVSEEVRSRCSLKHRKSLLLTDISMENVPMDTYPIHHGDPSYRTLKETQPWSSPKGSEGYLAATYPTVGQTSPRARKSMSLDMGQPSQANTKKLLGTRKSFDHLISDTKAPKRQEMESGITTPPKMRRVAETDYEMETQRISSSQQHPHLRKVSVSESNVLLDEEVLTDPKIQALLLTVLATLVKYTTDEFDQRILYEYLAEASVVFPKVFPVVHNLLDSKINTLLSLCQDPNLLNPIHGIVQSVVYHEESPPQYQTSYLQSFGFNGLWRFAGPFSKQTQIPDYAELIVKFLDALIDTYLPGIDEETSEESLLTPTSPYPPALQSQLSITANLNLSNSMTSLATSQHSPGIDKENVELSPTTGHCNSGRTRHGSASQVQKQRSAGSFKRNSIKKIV

SMILES: Nc1nc2c(c(=O)[nH]1)N(C=O)C(CNc1ccc(C(=O)N[C@@H](CCC(=O)O)C(=O)O)cc1)CN2 (stereo partly shown) [LEU, leucovorin]
- fold changes relative to vehicle control ([1]; HeLa, protein SPTLC1): 0.9
- fold changes relative to vehicle control ([2]; HeLa, captured protein ATP5B): 1.09
- fold changes relative to vehicle control ([3]; HeLa, protein NF1): 0.96
- fold changes relative to vehicle control ([4]; protein GART, HeLa): 0.66
- fold changes relative to vehicle control ([5]; protein NUDT1, HeLa): 1.19
- fold changes relative to vehicle control ([6]; HeLa, protein TUBA4A): 0.9
- fold changes relative to vehicle control ([7]; protein PCBP2, HeLa): 0.85
- fold changes relative to vehicle control ([8]; HeLa, protein BZW1): 1.01
- fold changes relative to vehicle control ([9]; HeLa, captured protein MON2): 1.04
- fold changes relative to vehicle control ([10]; HeLa, captured protein NUP205): 1.03

SMILES: Nc1nc2[nH]cc(CCc3ccc(C(=O)N[C@@H](CCC(=O)O)C(=O)O)cc3)c2c(=O)[nH]1 [PTX, pemetrexed]
- fold changes relative to vehicle control [1]: 0.95
- fold changes relative to vehicle control [2]: 1.07
- fold changes relative to vehicle control [3]: 1.04
- fold changes relative to vehicle control [4]: 0.43
- fold changes relative to vehicle control [5]: 0.36
- fold changes relative to vehicle control [6]: 0.83
- fold changes relative to vehicle control [7]: 1.03
- fold changes relative to vehicle control [8]: 1.09
- fold changes relative to vehicle control [9]: 1.05
- fold changes relative to vehicle control [10]: 1.09

SMILES: CCCCCCOc1ccc(Cc2cnc(N)nc2N)cc1 [compound 1]
- fold changes relative to vehicle control ([1]; captured protein SPTLC1, HeLa): 0.8
- fold changes relative to vehicle control ([2]; protein ATP5B, HeLa): 1.02
- fold changes relative to vehicle control ([3]; protein NF1, HeLa): 0.84
- fold changes relative to vehicle control ([4]; captured protein GART, HeLa): 0.94
- fold changes relative to vehicle control ([5]; captured protein NUDT1, HeLa): 1.02
- fold changes relative to vehicle control ([6]; captured protein TUBA4A, HeLa): 0.95
- fold changes relative to vehicle control ([7]; protein PCBP2, HeLa): 0.96
- fold changes relative to vehicle control ([8]; protein BZW1, HeLa): 1.09
- fold changes relative to vehicle control ([9]; HeLa, protein MON2): 1.11
- fold changes relative to vehicle control ([10]; captured protein NUP205, HeLa): 1.03

SMILES: CCCCCCOc1cccc(Cc2cnc(N)nc2N)c1 [compound 2]
- fold changes relative to vehicle control ([1]; captured protein SPTLC1, HeLa): 1.03
- fold changes relative to vehicle control ([2]; protein ATP5B, HeLa): 0.83
- fold changes relative to vehicle control ([3]; protein NF1, HeLa): 1.15
- fold changes relative to vehicle control ([4]; captured protein GART, HeLa): 1.03
- fold changes relative to vehicle control ([5]; captured protein NUDT1, HeLa): 0.11
- fold changes relative to vehicle control ([6]; captured protein TUBA4A, HeLa): 0.88
- fold changes relative to vehicle control ([7]; protein PCBP2, HeLa): 1.28
- fold changes relative to vehicle control ([8]; protein BZW1, HeLa): 1.52
- fold changes relative to vehicle control ([9]; HeLa, protein MON2): 1.08
- fold changes relative to vehicle control ([10]; captured protein NUP205, HeLa): 1.1

SMILES: Nc1nc2cccc(-c3ccccc3)c2n1Cc1ccc(Cl)c(Cl)c1 [compound 3]
- fold changes relative to vehicle control ([1]; captured protein SPTLC1, HeLa): 1.09
- fold changes relative to vehicle control ([2]; protein ATP5B, HeLa): 0.96
- fold changes relative to vehicle control ([3]; protein NF1, HeLa): 1.06
- fold changes relative to vehicle control ([4]; captured protein GART, HeLa): 1.1
- fold changes relative to vehicle control ([5]; captured protein NUDT1, HeLa): 0.62
- fold changes relative to vehicle control ([6]; captured protein TUBA4A, HeLa): 1.01
- fold changes relative to vehicle control ([7]; protein PCBP2, HeLa): 0.91
- fold changes relative to vehicle control ([8]; protein BZW1, HeLa): 0.91
- fold changes relative to vehicle control ([9]; HeLa, protein MON2): 1.18
- fold changes relative to vehicle control ([10]; captured protein NUP205, HeLa): 1.18

SMILES: NCCOCCOCC(=O)Nc1nc2ncc(CNc3ccc(C(=O)NC(CCC(=O)O)C(=O)O)cc3)nc2c(=O)[nH]1 (stereo not shown) [compound 6]
- fold changes relative to vehicle control ([1]; HeLa, protein SPTLC1): 0.95
- fold changes relative to vehicle control ([2]; HeLa, captured protein ATP5B): 0.96
- fold changes relative to vehicle control ([3]; HeLa, protein NF1): 1.18
- fold changes relative to vehicle control ([4]; protein GART, HeLa): 0.72
- fold changes relative to vehicle control ([5]; protein NUDT1, HeLa): 1.16
- fold changes relative to vehicle control ([6]; HeLa, protein TUBA4A): 0.98
- fold changes relative to vehicle control ([7]; protein PCBP2, HeLa): 1.04
- fold changes relative to vehicle control ([8]; HeLa, protein BZW1): 1.21
- fold changes relative to vehicle control ([9]; HeLa, captured protein MON2): 1.17
- fold changes relative to vehicle control ([10]; HeLa, captured protein NUP205): 1.16

SMILES: NCCCNc1ccc(C(=O)NC(CCC(=O)O)C(=O)O)cc1 (stereo not shown) [compound 7]
- fold changes relative to vehicle control ([1]; HeLa, protein SPTLC1): 1.03
- fold changes relative to vehicle control ([2]; HeLa, captured protein ATP5B): 1.04
- fold changes relative to vehicle control ([3]; HeLa, protein NF1): 1.11
- fold changes relative to vehicle control ([4]; protein GART, HeLa): 1.14
- fold changes relative to vehicle control ([5]; protein NUDT1, HeLa): 1.2
- fold changes relative to vehicle control ([6]; HeLa, protein TUBA4A): 0.99
- fold changes relative to vehicle control ([7]; protein PCBP2, HeLa): 0.96
- fold changes relative to vehicle control ([8]; HeLa, protein BZW1): 0.98
- fold changes relative to vehicle control ([9]; HeLa, captured protein MON2): 1.25
- fold changes relative to vehicle control ([10]; HeLa, captured protein NUP205): 1.16

From PMC6199744, “Development of Chemical Proteomics for the Folateome and Analysis of the Kinetoplastid Folateome” (ACS Infectious Diseases, 2018)
